Data reported in patent US20240101576A1, “HETEROCYCLIC INHIBITORS OF EGFR AND/OR HER2, FOR USE IN THE TREATMENT OF CANCER” (Scorpion Therapeutics, Inc., priority 2020, published 2024).

How the values were obtained:
Format in all cases: cell-based
[1] = biological target: T1, EGFR exon 20 NPG Ins D770_N771 (Ba/F3 cells) (Homo sapiens, UniProt P00533, INS770NPG); experiment: Inhibitor activity on EGFR-dependent cell growth (CellTiter-Glo, 72 h), Ba/F3 EGFR exon 20 NPG Ins; settings: read-out: BaF3 NPG IC50
T1 construct: expressed in transfected cells; host or cells: Ba/F3 (murine pro-B cells), retroviral transduction, puromycin selection, IL3-independent pool
How it was run: (§1)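 IC50s derive from a sigmoidal dose–response fit of CellTiter-Glo signal. The signal was normalised between […]-treated cells and cell-free medium. Ba/F3 mutant-EGFR cells, seeded at 400–800/well depending on the line, had 72 h of exposure to a 10-point, 3-fold compound series.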

[2] = biological target: T2, EGFR L858R/C797S (Ba/F3 cells) (Homo sapiens, UniProt P00533, C797S/L858R); experiment: Inhibitor activity on EGFR phosphorylation (pEGFR AlphaLISA, 2 h), Ba/F3 EGFR L858R/C797S
T2 construct: expressed in transfected cells; host or cells: Ba/F3 (murine pro-B cells), retroviral transduction, puromycin selection, IL3-independent pool
Excerpt: (§2) Example B. Inhibitor Activity on EGFR phosphorylation (pEGFR)
(§3) EGFR mutant Ba/F3 cells were generated by transduction with retrovirus containing vectors expressing EGFR L858R, EGFR exon 19del, EGFR L858R/C797S, EGFR exon 20 NPG Ins D770_N771, EGFR exon 20 ASV Ins V769_D770, or EGFR exon 20 SVD Ins D770_N771 genes along with a puromycin selection marker. Transduced cells are selected with puromycin for 7 days and are then be transferred into culture media without Interleukin 3 (IL3). Surviving cells are confirmed to express EGFR by Western blot and maintained as a pool. CUTO14 cells were obtained from Dr. Robert C. Doebele at the University of Colorado. The IC50 date are included in Table 6 and Table 7.
(§4) 1.1 Cells are harvested from flask into cell culture medium and the cell number counted.
(§5) 1.2 Cells are diluted with culture medium to the desired density and 40 μL of cell suspension is added into each well of 384-well cell culture plate and the seeding density is 50K cells/well (Ba/F3) or 12.5K cells/well (CUTO14).
(§6) 2 Compound Preparation and Treatment
(§7) 2.1 Test compounds are dissolved to 10 mM in a DMSO stock solution. 45 μL of stock solution is transferred to a 384 polypropylene plate (pp-plate). Perform 3-fold, 10-point dilution via transferring 15 μL compound into 30 μL DMSO using a TECAN (EVO200) liquid handler.
(§8) 2.2 Spin plates at room temperature at 1,000 RPM for 1 minute.
(§9) 2.3 Transfer 5 nL of diluted compound from compound source plate into the cell plate.
(§10) 2.4 After compound treatment for 2 hours, perform pEGFR detection by AlphaLISA for compound treatment plates as described in “Detection” section.
(§11) 3 Detection by pEGFR AlphaLISA (Perkin-Elmer)
(§12) 3.1 Plates are removed from incubators and equilibrated at room temperature for 10 minutes, and media was removed
(§13) 3.2 10 μL of lysis buffer is added and plates shaken at 600 rpm for 1 hr.
(§14) 3.3 Prepare acceptor mix just before use and dispense 5 μL of acceptor mix to all the wells. Shake 350 rpm for Ihr in the dark
(§15) 3.4 Prepare donor mix under low light conditions prior to use. Dispense 5 μL of donor mix to all the wells. Mix well on the shaker, seal and wrap in aluminum foil and incubate 1.5 hrs at room temperature in the dark
(§16) 3.5 Transfer 18.5 μL mixture to OptiPlate 384, and read using an Envision. The IC50 date were included in Table 6 and Table 7.

[3] = biological target: T3, EGFR exon 19del (Ba/F3 cells) (Homo sapiens, UniProt P00533); experiment: Inhibitor activity on EGFR-dependent cell growth (CellTiter-Glo, 72 h), Ba/F3 EGFR exon 19del; settings: Ba/F3 EGFR exon 19del cell growth, read-out: BaF3 Del19 IC50
How it was run: (§17)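 Compounds, serially diluted 3-fold over 10 points in DMSO and added at 120 nL per well, act on Ba/F3 EGFR-mutant cells for 72 h. Seeding is 800 (exon 19del, FQEA), 600 (L858R/C797S) or 400 (L858R) cells/well. CTG luminescence is fitted with a four-parameter logistic curve to give IC50.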

[4] = biological target: T2, EGFR L858R/C797S (Ba/F3 cells); experiment: Inhibitor activity on EGFR-dependent cell growth (CellTiter-Glo, 72 h), Ba/F3 EGFR L858R/C797S; settings: read-out: BaF3 L858R/C797S IC50
Excerpt: Example A. Inhibitor Activity on EGFR-Dependent Cell Growth
Cell lines are generated by transducing Ba/F3 cells with retroviruses containing vectors with EGFR WT, EGFR L858R, EGFR exon 19del, EGFR L858R/C797S, EGFR exon 20 NPG Ins D770_N771, EGFR exon 20 ASV Ins V769_D770, EGFR exon 20 SVD Ins D770_N771, or EGFR exon 20 FQEA Ins A763_V764 genes and a puromycin selection marker. Transduced cells are selected with puromycin for 7 days and are then be transferred into culture media without Interleukin 3 (IL3). EGFR WT cells are maintained with supplemental EGF. Surviving cells are confirmed to express EGFR by Western blot and maintained as a pool. The IC50 date were included in Table 6 and Table 7.
as §4
1.2 Cells are diluted with culture medium to the desired density and 40 μL of cell suspension is added into each well of 384-well cell culture plate and the seeding density is 800 (FQEA, exon 19del), 600 (WT, NPG, L858R/C797S), or 400 (ASV, SVD, L858R) cells/well.
as §6, §7, §8
2.3 Transfer 120 nL of diluted compound from compound source plate into the cell plate.
2.4 After compound treatment for 72 hours, perform CTG detection for compound treatment plates as described in “Detection” section.
3.1 Plates are removed from incubators and equilibrated at room temperature for 15 minutes.
3.2 Thaw the CellTiter Glo reagents and allow to equilibrate to room temperature before the experiment.
3.3 Add 40 μL of CellTiter-Glo reagent into each well (at 1:1 to culture medium). Then place the plates at room temperature for 30 min followed by reading on EnVision.
4.1 Inhibition activity is calculated following the formula below:
% Inhibition=100×(LumHC−LumSample)/(LumHC−LumLC) • where HC is obtained from cells treated with 0.1% DMSO only; and LC is obtained from culture medium only.
4.2 2. Calculate the IC50 by fitting the Curve using Xlfit (v5.3.1.3), equation 201.
Y=Bottom+(Top−Bottom)/(1+10^((Log IC50−X)*HillSlope))

[5] = biological target: T3, EGFR exon 19del (Ba/F3 cells); experiment: Inhibitor activity on EGFR phosphorylation (pEGFR AlphaLISA, 2 h), Ba/F3 EGFR exon 19del; settings: read-out: Del19 IC50 (pEGFR)
Excerpt: as §2, §3, §4, §5, §6, §7, §8, §9, §10, §11, §12, §13, §14, §15, §16

EGFR L858R (Ba/F3 cells) [6] = biological target: T4, EGFR L858R (Ba/F3 cells) (Homo sapiens, UniProt P00533, L858R); experiment: Inhibitor activity on EGFR-dependent cell growth (CellTiter-Glo, 72 h), Ba/F3 EGFR L858R; settings: read-out: BaF3 L858R IC50
T4 construct: expressed in transfected cells; host or cells: Ba/F3 (murine pro-B cells), retroviral transduction, puromycin selection, IL3-independent pool
How it was run: as §17

[7] = biological target: T5, EGFR exon 20 SVD Ins D770_N771 (Ba/F3 cells) (Homo sapiens, UniProt P00533, INS770SVD); experiment: Inhibitor activity on EGFR-dependent cell growth (CellTiter-Glo, 72 h), Ba/F3 EGFR exon 20 SVD Ins; settings: read-out: BaF3 SVD IC50
T5 construct: expressed in transfected cells; host or cells: Ba/F3 (murine pro-B cells), retroviral transduction, puromycin selection, IL3-independent pool
How it was run: as §1

EGFR L858R (Ba/F3 cells) [8] = biological target: T4, EGFR L858R (Ba/F3 cells); experiment: Inhibitor activity on EGFR phosphorylation (pEGFR AlphaLISA, 2 h), Ba/F3 EGFR L858R
Excerpt: as §2, §3, §4, §5, §6, §7, §8, §9, §10, §11, §12, §13, §14, §15, §16

EGFR WT (Ba/F3 cells) = biological target: T6, EGFR WT (Ba/F3 cells) (Homo sapiens, UniProt P00533); experiment: Inhibitor activity on EGFR-dependent cell growth (CellTiter-Glo, 72 h), Ba/F3 EGFR WT; settings: read-out: BaF3 WT IC50
T6 construct: expressed in transfected cells; host or cells: Ba/F3 (murine pro-B cells), retroviral transduction, puromycin selection, maintained with EGF
How it was run: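 This growth assay used Ba/F3 cells that depend on wild-type EGFR and are kept in EGF without IL3. Compounds were made up as 10 mM DMSO stocks and diluted 3-fold over 10 points. 120 nL went onto 600 cells/well. After 72 hours, 40 μL CellTiter-Glo was added and luminescence read on EnVision after 30 min.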

[9] = biological target: T7, EGFR exon 20 ASV Ins V769_D770 (Ba/F3 cells) (Homo sapiens, UniProt P00533, INS769ASV); experiment: Inhibitor activity on EGFR-dependent cell growth (CellTiter-Glo, 72 h), Ba/F3 EGFR exon 20 ASV Ins; settings: read-out: BaF3 ASV IC50
T7 construct: expressed in transfected cells; host or cells: Ba/F3 (murine pro-B cells), retroviral transduction, puromycin selection, IL3-independent pool
How it was run: as §1

[10] = biological target: T8, EGFR exon 20 FQEA Ins A763_V764 (Ba/F3 cells) (Homo sapiens, UniProt P00533, INS763FQEA); experiment: Inhibitor activity on EGFR-dependent cell growth (CellTiter-Glo, 72 h), Ba/F3 EGFR exon 20 FQEA Ins; settings: read-out: BaF3 FQEA IC50
T8 construct: expressed in transfected cells; host or cells: Ba/F3 (murine pro-B cells), retroviral transduction, puromycin selection, IL3-independent pool
How it was run: as §17

T5 sequence (P00533 with tags, fused parts or gaps INS770SVD): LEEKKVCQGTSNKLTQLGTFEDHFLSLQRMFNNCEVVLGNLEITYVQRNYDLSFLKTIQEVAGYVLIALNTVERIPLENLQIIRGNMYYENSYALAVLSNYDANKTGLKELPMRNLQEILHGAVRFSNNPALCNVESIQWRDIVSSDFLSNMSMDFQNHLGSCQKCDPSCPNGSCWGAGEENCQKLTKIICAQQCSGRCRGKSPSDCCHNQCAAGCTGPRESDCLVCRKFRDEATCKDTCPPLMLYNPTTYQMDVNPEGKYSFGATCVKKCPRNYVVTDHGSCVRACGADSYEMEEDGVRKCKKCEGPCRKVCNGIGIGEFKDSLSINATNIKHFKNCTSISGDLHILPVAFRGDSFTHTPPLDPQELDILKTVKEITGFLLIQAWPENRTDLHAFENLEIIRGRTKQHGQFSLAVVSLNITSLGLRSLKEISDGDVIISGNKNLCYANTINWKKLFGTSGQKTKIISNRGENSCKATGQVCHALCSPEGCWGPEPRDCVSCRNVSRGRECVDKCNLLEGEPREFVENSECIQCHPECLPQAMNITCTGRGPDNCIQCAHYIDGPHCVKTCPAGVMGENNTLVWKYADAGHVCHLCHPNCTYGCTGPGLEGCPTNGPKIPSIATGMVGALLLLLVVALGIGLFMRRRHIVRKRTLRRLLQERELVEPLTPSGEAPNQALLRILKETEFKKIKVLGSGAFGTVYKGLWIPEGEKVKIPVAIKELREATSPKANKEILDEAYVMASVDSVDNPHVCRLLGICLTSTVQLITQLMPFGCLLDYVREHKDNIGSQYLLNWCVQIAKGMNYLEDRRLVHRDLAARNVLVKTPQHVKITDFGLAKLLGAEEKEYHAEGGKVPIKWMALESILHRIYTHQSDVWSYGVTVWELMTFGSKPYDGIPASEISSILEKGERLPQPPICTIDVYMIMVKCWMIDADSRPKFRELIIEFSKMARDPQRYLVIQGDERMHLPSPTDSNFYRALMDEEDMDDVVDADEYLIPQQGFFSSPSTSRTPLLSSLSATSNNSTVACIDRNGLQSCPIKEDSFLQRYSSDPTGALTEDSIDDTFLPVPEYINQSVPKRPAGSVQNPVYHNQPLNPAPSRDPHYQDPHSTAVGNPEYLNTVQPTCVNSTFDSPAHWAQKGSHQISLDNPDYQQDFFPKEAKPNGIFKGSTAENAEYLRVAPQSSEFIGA
T2 sequence (P00533 25-1210 C797S/L858R): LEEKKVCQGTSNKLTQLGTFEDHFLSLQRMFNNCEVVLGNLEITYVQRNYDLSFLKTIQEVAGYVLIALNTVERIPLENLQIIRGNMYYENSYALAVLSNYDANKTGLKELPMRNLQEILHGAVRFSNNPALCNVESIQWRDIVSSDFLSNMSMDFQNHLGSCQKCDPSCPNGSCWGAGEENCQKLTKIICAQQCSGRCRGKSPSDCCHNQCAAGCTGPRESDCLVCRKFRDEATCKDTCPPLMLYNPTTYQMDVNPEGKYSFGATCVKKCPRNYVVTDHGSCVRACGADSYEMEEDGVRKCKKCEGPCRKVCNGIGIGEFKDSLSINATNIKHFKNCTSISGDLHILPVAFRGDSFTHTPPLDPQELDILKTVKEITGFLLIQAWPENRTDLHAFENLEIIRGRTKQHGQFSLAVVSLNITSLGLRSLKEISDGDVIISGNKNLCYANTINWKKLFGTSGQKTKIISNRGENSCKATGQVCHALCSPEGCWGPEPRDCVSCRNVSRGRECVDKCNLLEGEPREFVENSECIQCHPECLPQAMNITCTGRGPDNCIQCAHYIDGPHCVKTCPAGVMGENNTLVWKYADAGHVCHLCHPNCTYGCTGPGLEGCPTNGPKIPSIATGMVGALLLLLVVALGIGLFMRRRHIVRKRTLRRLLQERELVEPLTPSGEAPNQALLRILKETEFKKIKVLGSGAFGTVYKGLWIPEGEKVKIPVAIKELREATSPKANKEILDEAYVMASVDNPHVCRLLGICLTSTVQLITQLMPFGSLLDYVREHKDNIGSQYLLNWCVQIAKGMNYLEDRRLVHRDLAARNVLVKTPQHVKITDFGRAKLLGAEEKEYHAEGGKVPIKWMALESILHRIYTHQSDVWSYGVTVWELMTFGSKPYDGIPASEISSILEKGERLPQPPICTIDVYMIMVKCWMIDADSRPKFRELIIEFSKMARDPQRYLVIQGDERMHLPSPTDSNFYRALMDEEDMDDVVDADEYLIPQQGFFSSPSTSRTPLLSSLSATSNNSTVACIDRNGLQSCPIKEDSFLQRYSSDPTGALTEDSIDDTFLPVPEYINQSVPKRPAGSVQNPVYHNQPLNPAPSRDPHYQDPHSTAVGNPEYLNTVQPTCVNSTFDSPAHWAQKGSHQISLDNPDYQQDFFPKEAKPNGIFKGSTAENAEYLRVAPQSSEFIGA
T7 sequence (P00533 with tags, fused parts or gaps INS769ASV): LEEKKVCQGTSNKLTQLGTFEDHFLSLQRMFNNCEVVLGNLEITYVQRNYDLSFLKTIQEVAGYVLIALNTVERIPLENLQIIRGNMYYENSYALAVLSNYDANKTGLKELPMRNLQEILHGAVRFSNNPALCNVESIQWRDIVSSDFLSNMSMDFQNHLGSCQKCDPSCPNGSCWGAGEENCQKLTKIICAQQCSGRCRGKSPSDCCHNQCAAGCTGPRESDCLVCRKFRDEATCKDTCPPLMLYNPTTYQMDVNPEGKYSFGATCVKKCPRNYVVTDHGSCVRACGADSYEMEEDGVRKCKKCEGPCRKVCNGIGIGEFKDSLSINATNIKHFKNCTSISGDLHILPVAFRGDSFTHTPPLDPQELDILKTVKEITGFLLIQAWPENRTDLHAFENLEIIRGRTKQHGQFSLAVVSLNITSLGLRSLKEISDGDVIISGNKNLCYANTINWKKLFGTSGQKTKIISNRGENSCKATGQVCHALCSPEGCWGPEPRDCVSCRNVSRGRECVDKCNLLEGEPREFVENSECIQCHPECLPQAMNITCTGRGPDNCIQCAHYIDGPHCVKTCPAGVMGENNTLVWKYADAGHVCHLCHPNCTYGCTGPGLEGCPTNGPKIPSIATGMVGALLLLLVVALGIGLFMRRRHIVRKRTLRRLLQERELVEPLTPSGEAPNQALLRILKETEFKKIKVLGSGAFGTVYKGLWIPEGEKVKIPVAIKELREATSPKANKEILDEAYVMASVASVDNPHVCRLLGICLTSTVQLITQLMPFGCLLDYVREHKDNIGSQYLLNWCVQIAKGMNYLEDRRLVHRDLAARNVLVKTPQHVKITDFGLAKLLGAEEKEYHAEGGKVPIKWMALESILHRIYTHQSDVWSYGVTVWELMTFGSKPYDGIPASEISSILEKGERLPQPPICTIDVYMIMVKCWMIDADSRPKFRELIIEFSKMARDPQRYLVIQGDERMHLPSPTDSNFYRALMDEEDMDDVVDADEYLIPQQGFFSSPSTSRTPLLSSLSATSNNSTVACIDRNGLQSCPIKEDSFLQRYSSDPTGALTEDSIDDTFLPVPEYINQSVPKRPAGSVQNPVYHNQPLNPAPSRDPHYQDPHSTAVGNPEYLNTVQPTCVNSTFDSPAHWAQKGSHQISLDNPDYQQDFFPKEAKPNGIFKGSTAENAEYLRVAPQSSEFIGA
T3 sequence (P00533 with tags, fused parts or gaps DEL746-750): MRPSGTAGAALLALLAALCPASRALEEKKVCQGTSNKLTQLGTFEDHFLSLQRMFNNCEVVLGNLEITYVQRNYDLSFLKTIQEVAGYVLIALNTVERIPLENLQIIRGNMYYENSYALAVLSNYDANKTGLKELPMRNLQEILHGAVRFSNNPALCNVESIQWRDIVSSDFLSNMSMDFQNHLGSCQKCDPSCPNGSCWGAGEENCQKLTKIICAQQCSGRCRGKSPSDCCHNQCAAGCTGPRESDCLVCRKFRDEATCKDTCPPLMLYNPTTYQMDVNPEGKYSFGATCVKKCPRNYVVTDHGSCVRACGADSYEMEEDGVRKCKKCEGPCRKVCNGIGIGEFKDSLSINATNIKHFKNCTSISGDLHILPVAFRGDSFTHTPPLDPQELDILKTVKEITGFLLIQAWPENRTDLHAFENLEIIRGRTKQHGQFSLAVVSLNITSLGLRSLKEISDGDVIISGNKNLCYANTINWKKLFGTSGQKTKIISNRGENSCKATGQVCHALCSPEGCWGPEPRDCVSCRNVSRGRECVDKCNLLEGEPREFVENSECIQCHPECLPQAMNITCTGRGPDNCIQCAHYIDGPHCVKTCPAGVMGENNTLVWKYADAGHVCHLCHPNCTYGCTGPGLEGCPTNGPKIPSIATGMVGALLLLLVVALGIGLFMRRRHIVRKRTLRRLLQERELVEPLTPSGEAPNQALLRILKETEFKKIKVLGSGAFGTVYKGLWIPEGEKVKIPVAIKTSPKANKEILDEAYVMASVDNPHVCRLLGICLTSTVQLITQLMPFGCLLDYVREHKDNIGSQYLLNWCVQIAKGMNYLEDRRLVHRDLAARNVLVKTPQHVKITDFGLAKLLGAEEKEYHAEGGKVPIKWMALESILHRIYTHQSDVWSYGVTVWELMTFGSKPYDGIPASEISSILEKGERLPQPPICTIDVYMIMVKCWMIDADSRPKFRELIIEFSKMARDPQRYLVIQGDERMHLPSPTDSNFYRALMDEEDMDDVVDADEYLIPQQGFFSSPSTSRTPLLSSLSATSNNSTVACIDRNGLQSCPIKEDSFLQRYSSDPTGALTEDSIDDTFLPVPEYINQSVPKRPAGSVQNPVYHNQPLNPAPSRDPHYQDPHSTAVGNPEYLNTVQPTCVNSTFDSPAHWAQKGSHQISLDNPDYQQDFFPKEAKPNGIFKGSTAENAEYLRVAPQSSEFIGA

IC50 [1] [nM] | IC50 [2] [nM] | IC50 [3] [nM] | IC50 [4] [nM] | IC50 [5] [nM] | IC50 (EGFR L858R (Ba/F3 cells) [6]) [nM] | IC50 [7] [nM] | IC50 (EGFR L858R (Ba/F3 cells) [8]) [nM] | IC50 (EGFR WT (Ba/F3 cells)) [nM] | IC50 [9] [nM] | IC50 [10] [nM] | Compound
100 to 1000 | < 100 | < 100 | < 100 | < 100 | < 100 | < 100 | < 100 | > 1000 | 100 to 1000 |  | COc1c(F)cccc1Nc1c(-c2ccncn2)[nH]c2c1C(=O)NCC2C[C@H]1COCCO1 (single isomer, unassigned) [Compound 572, (7R*)-7-[(2S)-1,4-dioxan-2-ylmethyl]-3-[(3-fluoro-2-methoxyphenyl)amino]-2-(pyrimidin-4-yl)-1H,5H,6H,7H-pyrrolo[3,2-c]pyridin-4-one]
100 to 1000 | < 100 | < 100 | < 100 | < 100 | < 100 | 100 to 1000 | < 100 | > 1000 | 100 to 1000 |  | COc1c(Cl)cccc1Nc1c(-c2ccncc2F)[nH]c2c1C(=O)NCC21CN(CC(F)F)C1 [Compound 519, 3′-[(3-chloro-2-methoxyphenyl)amino]-1-(2,2-difluoroethyl)-2′-(3-fluoropyridin-4-yl)-5′,6′-dihydro-1′H-spiro[azetidine-3,7′-pyrrolo[3,2-c]pyridin]-4′-one]
 | < 100 | < 100 | < 100 | < 100 | < 100 | < 100 | < 100 | > 1000 | 100 to 1000 | 100 to 1000 | COc1c(Cl)cccc1Nc1c(-c2ccncc2F)[nH]c2c1C(=O)NC[C@@]21CCN(CC(F)F)C1 [compound 822]
 | < 100 | < 100 | < 100 | < 100 | < 100 | < 100 | < 100 | 100 to 1000 | < 100 | < 100 | COc1c(Cl)cccc1Nc1c(-c2ccnc3ccc(OCC(F)F)nc23)[nH]c2c1C(=O)NCC2 [compound 733, 3-[(3-chloro-2-methoxyphenyl)amino]-2-[6-(2,2-difluoroethoxy)-1,5-naphthyridin-4-yl]-1H,5H,6H,7H-pyrrolo[3,2-c]pyridin-4-one]
